These results are taken from the OligoGym collection.

After the bases stand the sugars from the 5' end (letter, count) and the backbone: PS all phosphorothioate, else s phosphorothioate and o phosphodiester by linkage. Methylation of C is not given here. e = 2'-O-(2-methoxyethyl) (MOE); k = constrained ethyl (cEt); d = 2'-deoxy (DNA); m = 2'-O-methyl

The data set has as its target HSD17B13. The following applies: ASO, HepaRG.

Regarding “TCTTAAGATACCCAGG (sugars k3 d9 k3 e1, PS)”, where the note is “1 µM”, the target mRNA inhibition was 48%.
As for TCTTAGCTGTGCACTC (sugars k3 d10 k3, PS), the target mRNA inhibition (1 µM) was 69%.
In the case of TCTTATAAGACTATAA (sugars k3 d10 k3, PS), the target mRNA inhibition (1 µM) amounted to 17%.
In turn, TCTTATCCACACCTTC (sugars k3 d10 k3, PS) returned a target mRNA inhibition (1 µM) of 31%.
Same read-out and setting: then TCTTATCTTGGGCACC (sugars k3 d10 k3, PS), with 44%; and TCTTCACCTGATTTAG (sugars k3 d10 k3, PS), with 24%; and “TCTTGACAATGGTTGA (sugars k3 d9 k3 e1, PS)”, with 61%.
TGAAATTGATACACCA (sugars k3 d10 k3, PS) yielded a target mRNA inhibition (1 µM) of 58%.
As to “TGAACAGTCTTAAACC (sugars k3 d9 k3 e1, PS)”, for the setting “1 µM”, the target mRNA inhibition turned out to be 61%.
Same read-out and setting: to “TGAACAGTCTTAAACC (sugars kkdddddddddkekek, PS)” belongs 34%; to TGAACATACATTGTTG (sugars k3 d10 k3, PS), 29%; to TGAAGATTAGTTAACC (sugars k3 d10 k3, PS), 21%.
TGAATCATGATTGAAT (sugars k3 d10 k3, PS) returned a target mRNA inhibition (1 µM) of 38%.
Take “TGACAATGGTTGATAG (sugars k3 d9 k3 e1, PS)”: under “1 µM”, the target mRNA inhibition worked out at 38%.
Consider TGACAATGTGCAGCTC (sugars k3 d10 k3, PS), for which the target mRNA inhibition (1 µM) was determined as 64%.
TGACATAACTACTTCA (sugars k3 d10 k3, PS) came in with a target mRNA inhibition (1 µM) of 22%.
Regarding TGACTAAGGAGCTAGA (sugars k3 d10 k3, PS), under “1 µM”, the target mRNA inhibition was determined as 31%.
Sequence TGACTAATGCAAGATT (sugars k3 d10 k3, PS) displayed a target mRNA inhibition (1 µM) of 45%.
TGAGAAGGCGGTATCA (sugars k3 d10 k3, PS) yielded a target mRNA inhibition (1 µM) of 20%.
In turn, TGAGAATTTAAGAGGG (sugars k3 d10 k3, PS) displayed a target mRNA inhibition (1 µM) of 25%.
Regarding TGAGATAAAGCTGCCT (sugars k3 d10 k3, PS), the target mRNA inhibition (1 µM) stood at 63%.
The same measure, in the same setting: to TGAGATGGGCAAGGCC (sugars k3 d10 k3, PS) belongs 53%.
In the case of TGAGTTACATTACAGC (sugars k3 d10 k3, PS), the target mRNA inhibition is 16% (0.02 µM); 34% (0.078 µM); 72% (0.313 µM); 90% (1 µM); 86% (1.25 µM); 89% (5 µM).
Consider “TGATACACCAATGCAG (sugars k3 d1 m1 d8 k3, PS)”, for which, for the setting “1 µM”, the target mRNA inhibition was determined as 38%.
“TGATACACCAATGCAG (sugars k3 d9 k3 e1, PS)” displayed a target mRNA inhibition (1 µM) of 58%.
The sequence “TGATACACCAATGCAG (sugars kkdddddddddkekek, PS)” displayed a target mRNA inhibition (1 µM) of 62%.
Take “TGATATTCTGTGGCAT (sugars k3 d9 k3 e1, PS)”: the target mRNA inhibition worked out at 8% (0.02 µM); 23% (0.078 µM); 40% (0.313 µM); 74% (1 µM); 67% (1.25 µM); 90% (5 µM).
Where the note is “1 µM”, TGATCTTAAGGATCAT (sugars k3 d10 k3, PS) registered a target mRNA inhibition of 0%.
The sequence TGATTAAGCAGAATTG (sugars k3 d10 k3, PS) registered a target mRNA inhibition (1 µM) of 57%.
Consider TGATTAATCTTGATGC (sugars k3 d10 k3, PS), for which the target mRNA inhibition (1 µM) was determined as 15%.
As for TGATTTAGTTGGTAGC (sugars k3 d10 k3, PS), the target mRNA inhibition (0.02 µM) came to 7%; the target mRNA inhibition (0.078 µM) was found to be 43%; the target mRNA inhibition (0.313 µM) was 73%; the target mRNA inhibition (1 µM) came to 79%; the target mRNA inhibition (1.25 µM) stood at 84%; the target mRNA inhibition (5 µM) came to 94%.
TGCAAAATGTGATGCC (sugars k3 d10 k3, PS) had a target mRNA inhibition (1 µM) of 69%.
Same read-out and setting: to TGCAATAGTACTATAG (sugars k3 d10 k3, PS) belongs 24%; to TGCAGAAATTCACCTT (sugars k3 d10 k3, PS), 54%.
On the same count and under the same terms, to “TGCAGCATTGATTCGA (sugars k3 d1 m1 d8 k3, PS)” belongs 65%; to TGCAGCATTGATTCGA (sugars k3 d10 k3, PS), 47%; to “TGCAGCATTGATTCGA (sugars kkdddddddddkekek, PS)”, 42%.
On the same count and under the same terms, to TGCAGTTATTAGAAGT (sugars k3 d10 k3, PS) belongs 46%; to “TGCATCTTAAGATACC (sugars kkdddddddddkekek, PS)”, 24%.
On to TGCCTGCCTATTCCAT (sugars k3 d10 k3, PS), for which the target mRNA inhibition (1 µM) stood at 40%.
Regarding TGCTACTCTAGGAGAT (sugars k3 d10 k3, PS), for the setting “1 µM”, the target mRNA inhibition turned out to be 60%.
“TGCTACTTGAACAGTC (sugars k3 d1 m1 d8 k3, PS)” showed a target mRNA inhibition (1 µM) of 65%.
With TGCTACTTGAACAGTC (sugars k3 d10 k3, PS), the target mRNA inhibition is 3% (0.02 µM); 22% (0.078 µM); 49% (0.313 µM); 81% (1 µM); 78% (1.25 µM); 89% (5 µM).
On to “TGCTACTTGAACAGTC (sugars kkdddddddddkekek, PS)”, for which the target mRNA inhibition (1 µM) came out at 64%.
For the sequence “TGCTAGTGCCAAACCA (sugars kkdddddddddkekek, PS)”, for the setting “1 µM”, the target mRNA inhibition came to 58%.
Turning to TGCTATAGTAATCACA (sugars k3 d10 k3, PS), the target mRNA inhibition (1 µM) amounted to 65%.
On the same count and under the same terms, to “TGCTGCATTAATGCCA (sugars k3 d9 k3 e1, PS)” belongs 6%; to “TGCTGCATTAATGCCA (sugars kkdddddddddkekek, PS)”, 30%; to TGCTGCTAGTGCCAAA (sugars k3 d10 k3, PS), 58%.
Turning to TGGAACAATATGGGAT (sugars k3 d10 k3, PS), the target mRNA inhibition (1 µM) amounted to 46%.
In the case of TGGAATGCTACTTGAA (sugars k3 d10 k3, PS), the target mRNA inhibition came out at 0% (0.02 µM); 22% (0.078 µM); 55% (0.313 µM); 85% (1 µM); 71% (1.25 µM); 90% (5 µM).
Regarding TGGATATACTGTCCCA (sugars k3 d10 k3, PS), the target mRNA inhibition (1 µM) stood at 24%.
As for TGGTAAACTGTATGCC (sugars k3 d10 k3, PS), the target mRNA inhibition is, setting by setting: (0.02 µM) 0%; (0.078 µM) 3%; (0.313 µM) 40%; (1 µM) 76%; (1.25 µM) 72%; (5 µM) 85%.
In the case of TGGTAAGTATTCCATC (sugars k3 d10 k3, PS), the target mRNA inhibition (1 µM) is 26%.
Regarding TGGTAGCTTGCTCACT (sugars k3 d10 k3, PS), the target mRNA inhibition runs as follows: (0.02 µM) 16%; (0.078 µM) 31%; (0.313 µM) 48%; (1 µM) 71%; (1.25 µM) 72%; (5 µM) 81%.
TGGTCTAAAGTGCTGG (sugars k3 d10 k3, PS) registered a target mRNA inhibition (1 µM) of 61%.
Consider “TGTAAGAGTCAGTATC (sugars k3 d9 k3 e1, PS)”, for which the target mRNA inhibition (1 µM) turned out to be 46%.
In turn, TGTAAGAGTCAGTATC (sugars k3 d10 k3, PS) came in with a target mRNA inhibition (1 µM) of 43%.
For TGTACAAATTTATGCC (sugars k3 d10 k3, PS), the target mRNA inhibition (1 µM) was 67%.
With TGTAGTGGGAGTCGGA (sugars k3 d10 k3, PS), the target mRNA inhibition (1 µM) is 62%.
In turn, “TGTAGTGGGAGTCGGA (sugars kkdddddddddkekek, PS)” registered a target mRNA inhibition (1 µM) of 27%.
Same read-out and setting: then TGTATAGCTGCATTTC (sugars k3 d10 k3, PS), with 37%; and TGTATTAAGACAGTTG (sugars k3 d10 k3, PS), with 34%; and TGTCATAAAAATCGCT (sugars k3 d10 k3, PS), with 57%.
Regarding “TGTCCACCTTTAAATG (sugars k3 d9 k3 e1, PS)”, the target mRNA inhibition (1 µM) turned out to be 28%.
Turning to “TGTCCAGGTTGAGATA (sugars k3 d1 m1 d8 k3, PS)”, the target mRNA inhibition (1 µM) is 41%.
“TGTCCAGGTTGAGATA (sugars kkdddddddddkekek, PS)”: the target mRNA inhibition (1 µM) stood at 48%.
On to “TGTGATTGAGTTCTCC (sugars k3 d1 m1 d8 k3, PS)”, for which, under “1 µM”, the target mRNA inhibition stood at 34%.
“TGTGTTCTTGTTGATA (sugars k3 d9 k3 e1, PS)”: the target mRNA inhibition (1 µM) was 65%.
For TGTTATCTCAAGTCAG (sugars k3 d10 k3, PS), the target mRNA inhibition by setting is: (0.02 µM) 0%; (0.078 µM) 0%; (0.313 µM) 31%; (1 µM) 81%; (1.25 µM) 54%; (5 µM) 81%.
Sequence TGTTTTAGTATTTGGG (sugars k3 d10 k3, PS) gave a target mRNA inhibition (1 µM) of 48%.
Regarding “TTAAACCTTCCCTGTG (sugars kkdddddddddkekek, PS)”, the target mRNA inhibition (1 µM) is 0%.
In the case of “TTAAGATACCCAGGTT (sugars k3 d9 k3 e1, PS)”, for the setting “1 µM”, the target mRNA inhibition amounted to 51%.
With “TTAAGATACCCAGGTT (sugars kkdddddddddkekek, PS)”, the target mRNA inhibition (1 µM) came to 48%.
In turn, TTAAGGATCATTGCAG (sugars k3 d10 k3, PS) came in with a target mRNA inhibition (1 µM) of 14%.
Where the note is “1 µM”, TTAATACGACTTCCTT (sugars k3 d10 k3, PS) came in with a target mRNA inhibition of 35%.
“TTAATGCCACCCTACC (sugars kkdddddddddkekek, PS)”: where the note is “1 µM”, the target mRNA inhibition is 11%.
Under “1 µM”, TTAATTTTCGGGTTCT (sugars k3 d10 k3, PS) showed a target mRNA inhibition of 31%.
